Laboratory results from patent US4241069A, “3-Methylene flavanones and 3-methylene chromanones” (Miles Laboratories, Inc., priority 1979, dated 1980).
Values after ≈ are worked out from the molar mass of the structure shown.

Tests used:
S. aureus NRRL B2747 [1] = assay: MIC, agar incorporation method; assay type: cell-based, Staphylococcus aureus; conditions: Staphylococcus aureus, NRRLB2747, 32° C., 24 hours, read-out: Minimal Inhibitory Concentration
Description: (§1) The compounds of the present invention were tested for their ability to inhibit the growth of microorganisms by in vitro tests. Generally the in vitro tests involve growing representative microorganisms under conditions favorable to such growth and measuring the effectiveness of one or more compounds in inhibiting or destroying the growth of the microorganisms. The microorganisms used include representative bacteria, fungi and yeasts.
(§2) A representative selection of the test microorganisms were cultured in a nutrient broth, such as, for example, Eugon, commercially available from Difco Laboratories, Detroit, Michigan. Bacteria and Candida species were cultured for 24 hours at 32°-37° C. and fungi were cultured for approximately one week at 32° C. Inocula were prepared by suspending the growth or spores from a slant culture in sufficient sterile normal (0.9 percent) saline or Eugon broth, to yield cell or spore concentrations of 1,000,000 cells per milliliter. Anaerobic bacteria were cultured for 48-72 hours at 32°-37° C. in a thioglycollate containing medium, for example, Fluid Thioglycollate medium or NIH thioglycollate broth, commercially available from Difco Laboratories.
(§3) The compounds of the present invention were tested for activity against bacteria, yeasts and fungi by the agar incorporation method described below. MA 1347, 3-(dimethylaminomethyl)flavanone (disclosed in U.S. Pat. No. 3,753,985) was used as a comparative standard along with controls for each solvent system used.
(§4) A series of agar plates containing two-fold dilutions of each compound to be tested, ranging in concentration from 100 to 3.1 mcg/ml of agar medium was prepared. Aliquots of each concentration (100, 50, 25, 12.5, 6.2, and 3.1) prepared in N,N-dimethylformamide or 50 percent aqueous DMF were added to liquid Eugon agar at 48° C. (one part test solution to 100 parts agar). In some cases, tests with further dilutions to 0.125 mcg/ml were conducted. The agar medium, containing the 3-methylene flavanone or chromanone compound to be tested, was then dispensed into petri dishes and allowed to solidify. The solidified plates were kept overnight at room temperatures to dry the surface of the agar.
(§5) The agar plates were then inoculated with a drop of the standardized cell or spore suspension. Inoculated plates were incubated at 32° C. The inhibition end-point or minimum inhibitory concentration (MIC) shown in Table D represent the lowest concentration of test compound which inhibited the growth of the microorganism. Visual determination of growth inhibition was used. Bacteria and yeast end-points were determined after 24 hours incubation; molds, dermatophytes and anaerobes after 48-72 hours incubation. MIC values shown as ranges represent the extremes found in repeat assays. Virtually all such values were written plus or minus one dilution, the accepted variation of a two-fold dilution assay.

C. krusei VM 29B = assay: MIC, agar incorporation method; assay type: cell-based; conditions: Pichia kudriavzevii, VM29B; 32° C., 24 hours; read-out: Minimal Inhibitory Concentration
Description: as §1, §2, §3, §4, §5

[2] = test system: Trichophyton mentagrophytes ATCC 4807; assay: MIC, agar incorporation method; assay type: cell-based; conditions: ATCC4807, 32° C., 48-72 hours, read-out: Minimal Inhibitory Concentration
Description: as §1, §2, §3, §4, §5

[3] = test system: Sarcina subflava ATCC 7468; assay: MIC, agar incorporation method; assay type: cell-based; conditions: ATCC7468, 32° C., 24 hours, read-out: Minimal Inhibitory Concentration
Description: as §1, §2, §3, §4, §5

[4] = test system: Pseudomonas aeruginosa ATCC 14502; assay: MIC, agar incorporation method; assay type: cell-based; conditions: ATCC14502, 32° C., 24 hours, read-out: Minimal Inhibitory Concentration
Description: as §1, §2, §3, §4, §5

C. albicans NRRL Y-477 = assay: MIC, agar incorporation method; assay type: cell-based; conditions: Candida albicans, NRRLY477, 32° C., 24 hours, read-out: Minimal Inhibitory Concentration
Description: as §1, §2, §3, §4, §5

[5] = test system: Streptococcus faecalis ATCC 10541; assay: MIC, agar incorporation method; assay type: cell-based; conditions: Enterococcus faecalis, ATCC10541; 32° C., 24 hours; read-out: Minimal Inhibitory Concentration
Description: as §1, §2, §3, §4, §5

C. guillermondii VM 42 = assay: MIC, agar incorporation method; assay type: cell-based; conditions: 32° C., 24 hours; read-out: Minimal Inhibitory Concentration
Description: as §1, §2, §3, §4, §5

[6] = test system: Proteus vulgaris NRRL B123; assay: MIC, agar incorporation method; assay type: cell-based; conditions: NRRLB123, 32° C., 24 hours, read-out: Minimal Inhibitory Concentration
Description: as §1, §2, §3, §4, §5

A. fumigatus NRRL 163 = assay: MIC, agar incorporation method; assay type: cell-based; conditions: Aspergillus fumigatus, NRRL163, NRRL 163; 32° C., 48-72 hours; read-out: Minimal Inhibitory Concentration
Description: as §1, §2, §3, §4, §5

[7] = test system: Staphylococcus aureus ATCC 6538; assay: MIC, agar incorporation method; assay type: cell-based; conditions: Staphylococcus aureus, ATCC6538; S. aureus ATCC 6538; 32° C., 24 hours; read-out: Minimal Inhibitory Concentration
Description: as §1, §2, §3, §4, §5

T. mentagrophytes CDC = assay: MIC, agar incorporation method; assay type: cell-based; conditions: Trichophyton mentagrophytes, 32° C., 48-72 hours, read-out: Minimal Inhibitory Concentration
Description: as §1, §2, §3, §4, §5

C. tropicalis NRRL Y1410 = assay: MIC, agar incorporation method; assay type: cell-based; conditions: Candida tropicalis, NRRLY1410; 32° C., 24 hours; read-out: Minimal Inhibitory Concentration
Description: as §1, §2, §3, §4, §5

T. mentagrophytes TM-2 = assay: MIC, agar incorporation method; assay type: cell-based; conditions: Trichophyton mentagrophytes, TM2, 32° C., 48-72 hours, read-out: Minimal Inhibitory Concentration
Description: as §1, §2, §3, §4, §5

T. rubrum ATCC 10218 = assay: MIC, agar incorporation method; assay type: cell-based; conditions: Trichophyton rubrum, ATCC10218; 32° C., 48-72 hours; read-out: Minimal Inhibitory Concentration
Description: as §1, §2, §3, §4, §5

A. fumigatus NRRL 165 = assay: MIC, agar incorporation method; assay type: cell-based; conditions: Aspergillus fumigatus, NRRL165, 32° C., 48-72 hours, read-out: Minimal Inhibitory Concentration
Description: as §1, §2, §3, §4, §5

[8] = test system: Candida albicans ATCC 10231; assay: MIC, agar incorporation method; assay type: cell-based; conditions: ATCC10231, C. albicans ATCC 10231, 32° C., 24 hours, read-out: Minimal Inhibitory Concentration
Description: as §1, §2, §3, §4, §5

[9] = test system: Microsporum gypseum ATCC 14683; assay: MIC, agar incorporation method; assay type: cell-based; conditions: Nannizzia gypsea, ATCC14683, 32° C., 48-72 hours; read-out: Minimal Inhibitory Concentration
Description: as §1, §2, §3, §4, §5

[10] = test system: Escherichia coli ATCC 8739; assay: MIC, agar incorporation method; assay type: cell-based; conditions: ATCC8739, 32° C., 24 hours, read-out: Minimal Inhibitory Concentration
Description: as §1, §2, §3, §4, §5

[11] = test system: Aspergillus niger ATCC 16404; assay: MIC, agar incorporation method; assay type: cell-based; conditions: ATCC16404, 32° C., 48-72 hours, read-out: Minimal Inhibitory Concentration
Description: as §1, §2, §3, §4, §5

[12] = test system: Propionobacterium acnes ATCC 6919; assay: MIC, agar incorporation method, anaerobic; assay type: cell-based; conditions: 48 hours at 35° C., GasPak Anaerobic Jar, read-out: Minimal Inhibitory Concentration
Description: as §1, §2, §3, §4, §5
(§6) *Anaerobic: 48 hours incubation at 35° C. GasPak Anaerobic Jar

[13] = test system: Clostridium acetobutylicum ATCC 824; assay: MIC, agar incorporation method, anaerobic; assay type: cell-based; conditions: ATCC824, 48 h, 48 hours at 35° C., GasPak Anaerobic Jar, read-out: Minimal Inhibitory Concentration
Description: as §1, §2, §3, §4, §5, §6

T. tonsurans ATCC 10217 = assay: MIC, agar incorporation method; assay type: cell-based; conditions: Trichophyton tonsurans, ATCC10217; 32° C., 48-72 hours; read-out: Minimal Inhibitory Concentration
Description: as §1, §2, §3, §4, §5

[14] = test system: Clostridium sporogenes ATCC 11437; assay: MIC, agar incorporation method, anaerobic; assay type: cell-based; conditions: ATCC11437, 48 hours at 35° C., GasPak Anaerobic Jar, read-out: Minimal Inhibitory Concentration
Description: as §1, §2, §3, §4, §5, §6

[15] = test system: Bacteriodides fragilis ATCC 8482; assay: MIC, agar incorporation method, anaerobic; assay type: cell-based; conditions: 48 hours at 35° C., GasPak Anaerobic Jar, read-out: Minimal Inhibitory Concentration
Description: as §1, §2, §3, §4, §5, §6

S. aureus NRRL B2747 [16] = assay: MIC, agar incorporation method, anaerobic; assay type: cell-based; conditions: Staphylococcus aureus, NRRLB2747, 48 hours at 35° C., GasPak Anaerobic Jar, read-out: Minimal Inhibitory Concentration
Description: as §1, §2, §3, §4, §5, §6

Row | SMILES | MIC (S. aureus NRRL B2747 [1]) | MIC (C. krusei VM 29B) | MIC [2] | MIC [3] | MIC [4] | MIC (C. albicans NRRL Y-477) | MIC [5] | MIC (C. guillermondii VM 42) | MIC (A. fumigatus NRRL 163) | MIC [7] | MIC (T. mentagrophytes CDC) | MIC (C. tropicalis NRRL Y1410) | MIC (T. mentagrophytes TM-2) | MIC [8] | MIC [9] | MIC [10] | MIC [11] | MIC [12] | MIC (T. tonsurans ATCC 10217) | MIC [14] | also measured
1 | C=C1C(=O)c2ccccc2OC1c1ccc([N+](=O)[O-])cc1 (stereo not drawn) [Ex. 10, 4'-nitro-3-methylene flavanone] | 6.2 µg/mL (≈ 22 µM) | 25 µg/mL (≈ 88.9 µM) | 6.2 µg/mL (≈ 22 µM) | 12.5 µg/mL (≈ 44.4 µM) | > 100 µg/mL | 25 µg/mL (≈ 88.9 µM) | 50 µg/mL (≈ 178 µM) | 50 µg/mL (≈ 178 µM) | 12.5 µg/mL (≈ 44.4 µM) | ≤ 3.1 µg/mL | 6.2 µg/mL (≈ 22 µM) | 50 µg/mL (≈ 178 µM) | 6.2 µg/mL (≈ 22 µM) | 25 µg/mL (≈ 88.9 µM) | 6.2 µg/mL (≈ 22 µM) | > 100 µg/mL | 50 µg/mL (≈ 178 µM) | ≤ 100 µg/mL |  |  | MIC [6]: > 100 µg/mL; MIC (T. rubrum ATCC 10218): ≤ 3.1 µg/mL; MIC (A. fumigatus NRRL 165): 100 µg/mL (≈ 356 µM); MIC [13]: ≤ 100 µg/mL
2 | C=C1C(=O)c2ccccc2OC1(c1ccccc1)c1cccs1 (stereo not drawn) [Ex. 21, 3-Methylene-2-(2-thienyl) flavanone] | 0.5 µg/mL (≈ 1.57 µM) | > 100 µg/mL | 12.5 µg/mL (≈ 39.3 µM) | 1.56 µg/mL (≈ 4.9 µM) | > 100 µg/mL | > 100 µg/mL | 1 µg/mL (≈ 3.14 µM) | > 100 µg/mL | 100 µg/mL (≈ 314 µM) | 0.5 µg/mL (≈ 1.57 µM) | 12.5 µg/mL (≈ 39.3 µM) | > 100 µg/mL | 12.5 µg/mL (≈ 39.3 µM) | > 100 µg/mL | 6.2 µg/mL (≈ 19.5 µM) | > 100 µg/mL | > 100 µg/mL | 1 µg/mL (≈ 3.14 µM) | 6.2 µg/mL (≈ 19.5 µM) | 0.5 µg/mL (≈ 1.57 µM) | MIC [15]: 0.25 µg/mL (≈ 0.785 µM); MIC (S. aureus NRRL B2747 [16]): 1.56 µg/mL (≈ 4.9 µM)
3 | C=C1C(=O)c2ccccc2OC1(c1ccccc1)c1ccncc1 (stereo not drawn) [Ex. 22, 3-Methylene-2-(4-pyridyl) flavanone] | 0.78 µg/mL (≈ 2.49 µM) | 100 µg/mL (≈ 319 µM) | 12.5 µg/mL (≈ 39.9 µM) | 3.1 µg/mL (≈ 9.89 µM) | > 100 µg/mL | 100 µg/mL (≈ 319 µM) | 3.1 µg/mL (≈ 9.89 µM) | > 100 µg/mL | 25 µg/mL (≈ 79.8 µM) | 0.78 µg/mL (≈ 2.49 µM) | 25 µg/mL (≈ 79.8 µM) | > 100 µg/mL | 12.5 µg/mL (≈ 39.9 µM) | 100 µg/mL (≈ 319 µM) | 12.5 µg/mL (≈ 39.9 µM) | > 100 µg/mL | > 100 µg/mL | 1 µg/mL (≈ 3.19 µM) | 6.2 µg/mL (≈ 19.8 µM) | 0.5 µg/mL (≈ 1.6 µM) | MIC [15]: 0.25 µg/mL (≈ 0.798 µM); MIC (S. aureus NRRL B2747 [16]): 1 µg/mL (≈ 3.19 µM)
